Measurements: patent publication US12409156B2, “Stable aqueous hydroxycarbamide solution” (Nova Bio-Pharma Product Development LTD, priority 2018, dated 2025)

Columns and labels:
[1] = Rat toxicology studies; assay type: in vivo; conditions: compared with hydroxycarbamide (hydroxyurea)
Experimental: Importantly, the composition disclosed in U.S. Pat. No. 3,119,866 is only stable as a dry composition, after evaporation of all water. […] After this time unacceptable levels of degradation products are present in the aqueous solution. As a result, it has previously been considered that the use of pH buffers such as potassium citrate and citric acid/sodium citrate to stabilise solutions of hydroxycarbamide is not effective. At temperatures between 2° C. and 8° C., the applicant has discovered that the main degradation product of hydroxycarbamide solutions is carbamoyloxyurea. The International Conference on Harmonisation of Technical Requirements for Registration of Pharmaceuticals for Human Use (ICH) stipulates that the maximum allowable limit for any degradant in a formulation should not exceed 0.15% w/v, at therapeutic doses of hydroxycarbamide in the treatment of sickle cell disease. […] As a result, the European Medicines Agency has now accepted that carbamoyloxyurea contents of up to 0.5% w/v are acceptable.

[2] = system: six organisms tested; test: Preservative efficacy study
Experimental: In parallel to this work, a preservative efficacy study was performed to investigate the effectiveness of the preservative system.

[3] = cited from earlier work

SMILES | risk in rat toxicology studies [1] | antimicrobial activity [2] | variation of exposure for a given dosing regime ([3]; adult patients) | differences in exposure at the same mg/kg dose ([3]; paediatric patients)
NC(=O)NOC(N)=O [carbamoyloxyurea] | does not pose a risk over and above hydroxycarbamide |  |  | 
NC(=O)NO [hydroxycarbamide, Hydroxycarbamide] |  | able to inhibit the growth of six organisms tested | approximately five-fold | two to three-fold
